Holding throughout (assay): in vitro antifungal activity, twofold agar dilution method
Holding throughout (format): cell-based
A general note: In agar dilution the substance is mixed into plates at graded concentrations.

Assay [1] deals with Candida albicans. The following applies: KCTC38245.
The test system of assay [2] is Fusarium oxysporum. The settings on record: KCTC6084, KCTC No 6084, potato dextrose agar.
The test system of assay [3] is Trichophyton rubrum. The settings on record: KCTC38484, KCTC No 38484, potato dextrose agar.
In assay [4] the test system is Trichophyton mentagrophyte. The settings on record: KCTC6085, KCTC No 6085, potato dextrose agar.
Assay [5] has as its system Saccharomyces cerevisiae. The settings on record: KCTC1213, KCTC No 1213, potato dextrose agar.
Assay [6] deals with Cryptococcus neoformans. The settings on record: KCTC1197, KCTC No 1197, potato dextrose agar.
Assay [7] relates to Candida glabrata. The settings on record: Nakaseomyces glabratus, KCTC1714; KCTC No 1714; potato dextrose agar.
Assay [8] concerns Microsporum gypseum. The following applies: Nannizzia gypsea, KCTC1252; KCTC No 1252; potato dextrose agar.
The subject of assay [9] is Aspergillus niger. The following applies: KCTC2119, KCTC No 2119, potato dextrose agar.
In assay [10] the test system is Rhizopus stolonifer. The following applies: KCTC6062, KCTC No 6062, potato dextrose agar.
The test system of assay [11] is Microsporum canis. The following applies: KCTC11621, KCTC No 11621, potato dextrose agar.
For assay [12], the system named is Epidennophyton floccosum.
Assay [13] relates to Candida albicans. The settings on record: KCTC1940, KCTC No 1940, potato dextrose agar.

≈ marks a conversion by molar mass, not a printed value.

Take `C[C@@H]1[C@H](O)[C@@H](C)/C=C/C=C/C=C/C=C/C=C/C=C/C=C/[C@H](O[C@@H]2O[C@H](C)[C@@H](O)[C@H](N)[C@@H]2O)C[C@@H]2O[C@](O)(C[C@@H](O)C[C@@H](O)[C@H](O)CC[C@@H](O)C[C@@H](O)CC(=O)O[C@H]1C)C[C@H](O)[C@H]2C(=O)O` [Amphotericin-B]: the minimum inhibitory concentration (MIC) (in general, the least concentration at which growth counts as inhibited) in assay [1] was found to be 0.782 µg/mL (≈ 0.846 µM); in assay [2], 0.196 µg/mL (≈ 0.212 µM); in assay [3] it was 0.782 µg/mL (≈ 0.846 µM); in [4], 3.12 µg/mL (≈ 3.38 µM); in [5], 0.098 µg/mL (≈ 0.106 µM); in assay [6], 0.098 µg/mL (≈ 0.106 µM). Besides, the MIC is 0.196 µg/mL (≈ 0.212 µM) in [7]; 0.196 µg/mL (≈ 0.212 µM) in [8]; 0.196 µg/mL (≈ 0.212 µM) in assay [9]; 0.391 µg/mL (≈ 0.423 µM) in [10]; 0.391 µg/mL (≈ 0.423 µM) in assay [11]; 3.12 µg/mL (≈ 3.38 µM) in [12]. The MIC in assay [13] came to 0.782 µg/mL (≈ 0.846 µM).

The values are drawn from US5786460A (Cheil Foods & Chemicals, Inc., priority 1993, dated 1998).
